Assay results from PubChem BioAssay (NCI).
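48-hour exposure; five concentrations; linearly interpolated endpoints. Definition used: TGI = concentration required for complete inhibition of growth.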

What was measured:
Assay in all cases: NCI tumour cell line growth inhibition, 48 h
A549 NSCLC = test system: A549 NSCLC
SR leukemia = test system: SR leukemia
HL-60(TB) leukemia = test system: HL-60(TB) leukemia
HCT-116 colon = test system: HCT-116 colon
NCI/ADR-RES ovarian = test system: NCI/ADR-RES ovarian
HOP-62 NSCLC = test system: HOP-62 NSCLC
M14 melanoma = test system: M14 melanoma
SNB-19 CNS = test system: SNB-19 CNS
TK-10 renal = test system: TK-10 renal
OVCAR-5 ovarian = test system: OVCAR-5 ovarian
SN12C renal = test system: SN12C renal
EKVX NSCLC = test system: EKVX NSCLC
PC-3 prostate = test system: PC-3 prostate
MCF7 breast = test system: MCF7 breast
HT29 colon = test system: HT29 colon
SF-268 CNS = test system: SF-268 CNS
OVCAR-8 ovarian = test system: OVCAR-8 ovarian
SK-MEL-5 melanoma = test system: SK-MEL-5 melanoma

SMILES	TGI (A549 NSCLC)	TGI (SR leukemia)	TGI (HL-60(TB) leukemia)	TGI (HCT-116 colon)	TGI (NCI/ADR-RES ovarian)	TGI (HOP-62 NSCLC)	TGI (M14 melanoma)	TGI (SNB-19 CNS)	TGI (TK-10 renal)	TGI (OVCAR-5 ovarian)	TGI (SN12C renal)	TGI (EKVX NSCLC)	TGI (PC-3 prostate)	TGI (MCF7 breast)	TGI (HT29 colon)	TGI (SF-268 CNS)	TGI (OVCAR-8 ovarian)	TGI (SK-MEL-5 melanoma)
COc1ccc(/C=C2\N=C(N3CCOCC3)NC2=O)cc1	> 100 µM	> 100 µM	> 100 µM	> 100 µM	> 100 µM	> 100 µM	> 100 µM	> 100 µM	> 100 µM	> 100 µM	> 100 µM	> 100 µM	> 100 µM	> 100 µM	> 100 µM	> 100 µM	> 100 µM	–
Brc1ccc2[nH]cc([C@@H]3CN[C@@H](c4c[nH]c5ccc(Br)cc45)CN3)c2c1	19.4 µM	4.17 µM	4.24 µM	9.2 µM	25.2 µM	23.1 µM	15 µM	24.3 µM	16.4 µM	20.6 µM	17.8 µM	20.3 µM	14.7 µM	11.6 µM	15.5 µM	27.8 µM	13.8 µM	20.8 µM
C=CC(C)(C)c1c(OC)oc2ccc(OC)c(C)c2c1=O	> 100 µM	> 100 µM	> 100 µM	> 100 µM	> 100 µM	> 100 µM	> 100 µM	> 100 µM	> 100 µM	> 100 µM	> 100 µM	> 100 µM	> 100 µM	> 100 µM	> 100 µM	> 100 µM	> 100 µM	> 100 µM
O=c1[nH]ncc2[nH]c(-c3ccccc3)cc12	> 100 µM	> 100 µM	> 100 µM	> 100 µM	69 µM	> 100 µM	> 100 µM	> 100 µM	> 100 µM	> 100 µM	> 100 µM	> 100 µM	95.1 µM	> 100 µM	> 100 µM	> 100 µM	> 100 µM	60.5 µM
CCc1nc2c(n1CC)C(=O)c1ccccc1C2=O	> 100 µM	> 100 µM	> 100 µM	> 10 µM	> 100 µM	> 100 µM	54.9 µM	> 100 µM	93.1 µM	> 100 µM	> 100 µM	> 100 µM	63.7 µM	> 100 µM	63.9 µM	> 100 µM	> 100 µM	> 10 µM
CC(=O)OC12c3ccccc3C(c3ccccc31)C1C(=O)N(c3ccccc3O)C(=O)C12 (configuration not stated)	> 100 µM	> 100 µM	> 100 µM	> 100 µM	> 100 µM	> 100 µM	> 100 µM	> 100 µM	> 100 µM	> 100 µM	> 100 µM	> 100 µM	> 100 µM	> 100 µM	> 100 µM	> 100 µM	> 100 µM	> 100 µM
C=CC(Br)(CBr)CCC1OC1(C)C (configuration not stated)	64.3 µM	86.8 µM	> 100 µM	30.7 µM	58.7 µM	33.2 µM	29 µM	32.7 µM	36.2 µM	33.3 µM	30.5 µM	38.5 µM	30.9 µM	29.9 µM	32.8 µM	31.2 µM	–	27.3 µM
O=C(CC(O)(C(F)(F)Cl)C(F)(F)Cl)CC(O)(C(F)(F)Cl)C(F)(F)Cl	> 10 µM	> 10 µM	4.94 µM	3.68 µM	> 10 µM	5.11 µM	> 10 µM	> 10 µM	> 10 µM	–	> 10 µM	8.02 µM	8.2 µM	> 10 µM	> 10 µM	> 10 µM	> 10 µM	4.62 µM
CCOC(=O)c1ccc(N(C)Cc2cnc3nc(N)nc(N)c3n2)cc1	–	> 100 µM	> 100 µM	> 100 µM	38.8 µM	54.7 µM	97.2 µM	> 100 µM	35.4 µM	> 100 µM	> 100 µM	> 100 µM	88.4 µM	49.8 µM	> 100 µM	> 100 µM	29.2 µM	> 100 µM
CN(NC(=O)c1ccc(Cl)cc1)C1=NCCCCN1	> 100 µM	> 100 µM	> 100 µM	> 100 µM	> 100 µM	> 100 µM	> 100 µM	> 100 µM	> 100 µM	> 100 µM	–	> 100 µM	> 100 µM	> 100 µM	> 100 µM	> 100 µM	> 100 µM	> 100 µM
O=C(Nn1c(-c2ccccc2)nc2ccccc2c1=O)c1ccc([N+](=O)[O-])cc1	> 100 µM	> 100 µM	> 100 µM	–	> 100 µM	> 100 µM	> 100 µM	> 100 µM	> 100 µM	> 100 µM	> 100 µM	> 100 µM	> 100 µM	> 100 µM	> 100 µM	> 100 µM	> 100 µM	> 100 µM
